Values after ≈ are worked out from the molar mass of the structure shown.
How the values were obtained:
Assay in all cases: Microdilution antimicrobial susceptibility test (MIC)
Type in all cases: cell-based
[1] = tested on: E coli; conditions: broth microdilution, 18-24 h, MIC = 90% inhibition of growth; for MIC: read-out: MIC E coli MIC2
[2] = tested on: E coli (ImpA); conditions: broth microdilution, 18-24 h, MIC = 90% inhibition of growth; for MIC: read-out: MIC E coli (ImpA) MIC9
Description: Microdilution Antimicrobial Susceptibility Test Assay
Stock solutions of tested compounds were prepared in N,N-dimethylformamide (DMF) at a concentration of 5 mg/mL. Working solutions of the tested compounds were then prepared from the stock solutions, in Mueller-Hinton broth (MHB) with a starting concentration of 64 μg/mL.
Bacterial inocula were prepared from overnight culture (i.e., one fresh colony from agar plate in 5 ml MHB; H. influenzae was grown in MHB with the addition of yeast extract, haematin, and NAD), centrifuged 2×5 min/3000 rpm (for S. pneumoniae and H. influenzae, 2×10 min/3000 rpm), and dispensed in 5 ml of fresh MHB each time, such that the bacterial suspension is diluted to obtain 100 colony forming units (cfu) in a microplate well (100 μl total volume).
Microplate wells were filled with two-fold dilutions of test compound (50 Al), starting with 64 μg/ml. Wells were then filled with 50 μl of bacterial inoculum (final volume: 100 μl/well). The plates were incubated at 37° C. for 18-24 hours (S. pneumoniae was grown in a CO2-enriched atmosphere).

[3] = tested on: S aureus; conditions: broth microdilution, 18-24 h, MIC = 90% inhibition of growth; for MIC: read-out: MIC S aureus MIC2
[4] = tested on: E faecalis; conditions: broth microdilution, 18-24 h, MIC = 90% inhibition of growth; for MIC: read-out: MIC E faecalis MIC2
[5] = tested on: S pneumoniae; conditions: broth microdilution, 18-24 h, CO2-enriched atmosphere, MIC = 90% inhibition of growth; for MIC: read-out: MIC S pneumoniae MIC6
[6] = tested on: M. catarrhalis; conditions: broth microdilution, 18-24 h, MIC = 90% inhibition of growth; for MIC: Moraxella catarrhalis, read-out: MIC M. catarrhalis MIC2
[7] = tested on: H influenzae; conditions: broth microdilution, 18-24 h, MIC = 90% inhibition of growth; for MIC: read-out: MIC H influenzae MIC4
[8] = tested on: S cerevisiae; conditions: broth microdilution, 18-24 h, MIC = 90% inhibition of growth; for MIC: read-out: MIC S cerevisiae MIC7

Row | SMILES | MIC E coli MIC2 [1] [µg/mL] | MIC E coli (ImpA) MIC9 [2] [µg/mL] | MIC S aureus MIC2 [3] [µg/mL] | MIC E faecalis MIC2 [4] [µg/mL] | MIC S pneumoniae MIC6 [5] [µg/mL] | MIC M. catarrhalis MIC2 [6] [µg/mL] | MIC H influenzae MIC4 [7] [µg/mL] | MIC S cerevisiae MIC7 [8] [µg/mL] | MIC [1] [µg/mL] | MIC [3] [µg/mL] | MIC [4] [µg/mL] | MIC [5] [µg/mL] | MIC [6] [µg/mL] | MIC [7] [µg/mL] | MIC [8] [µg/mL] | MIC [2] [µg/mL]
1 | O=[N+]([O-])c1ccc(-c2nnc(S)n2Cc2ccccc2)o1 [Compound 135] | >64 | 32 (≈ 106 µM) | 32 (≈ 106 µM) | 16 (≈ 52.9 µM) | 8 (≈ 26.5 µM) | 1 (≈ 3.31 µM) | 64 (≈ 212 µM) | >64 | – | – | – | – | – | – | – | –
2 | O=[N+]([O-])c1ccc(-c2nnc(S)n2C2CCCCC2)o1 [Compound 137] | >64 | 32 (≈ 109 µM) | >64 | 32 (≈ 109 µM) | 8 (≈ 27.2 µM) | 1 (≈ 3.4 µM) | 16 (≈ 54.4 µM) | >64 | – | – | – | – | – | – | – | –
3 | Nn1c(S)nnc1-c1ccc([N+](=O)[O-])o1 [Compound 110] | – | – | – | – | – | – | – | – | 16 (≈ 70.4 µM) | 32 (≈ 141 µM) | > 128 | 32 (≈ 141 µM) | 32 (≈ 141 µM) | 8 (≈ 35.2 µM) | 64 (≈ 282 µM) | –
4 | CCn1c(S)nnc1-c1ccc([N+](=O)[O-])o1 [Compound 126] | – | – | – | – | – | – | – | – | > 64 | > 64 | 64 (≈ 266 µM) | 16 (≈ 66.6 µM) | 4 (≈ 16.6 µM) | 32 (≈ 133 µM) | > 64 | –
5 | O=[N+]([O-])c1ccc(-c2nnc(S)n2CCCN2CCOCC2)o1 [Compound 120] | >64 | 32 (≈ 94.3 µM) | 64 (≈ 189 µM) | 64 (≈ 189 µM) | 16 (≈ 47.1 µM) | 2 (≈ 5.89 µM) | 16 (≈ 47.1 µM) | 64 (≈ 189 µM) | – | – | – | – | – | – | – | –
6 | Cn1c(SCC#N)nnc1-c1ccc([N+](=O)[O-])o1 [Compound 121] | 8 (≈ 30.2 µM) | 2 (≈ 7.54 µM) | 16 (≈ 60.3 µM) | 64 (≈ 241 µM) | 16 (≈ 60.3 µM) | 1 (≈ 3.77 µM) | 16 (≈ 60.3 µM) | >64 | – | – | – | – | – | – | – | –
7 | CSc1nnc(-c2ccc([N+](=O)[O-])o2)n1C [Compound 124] | – | – | – | – | – | – | – | – | 64 (≈ 266 µM) | 16 (≈ 66.6 µM) | 32 (≈ 133 µM) | 8 (≈ 33.3 µM) | 1 (≈ 4.16 µM) | 8 (≈ 33.3 µM) | 16 (≈ 66.6 µM) | 2 (≈ 8.32 µM)
8 | O=[N+]([O-])c1ccc(-c2nnc(S)n2-c2ccccc2)o1 [Compound 134] | – | 2 (≈ 6.94 µM) | 2 (≈ 6.94 µM) | 64 (≈ 222 µM) | 8 (≈ 27.8 µM) | 0.25 (≈ 0.867 µM) | 8 (≈ 27.8 µM) | >64 | – | – | – | – | – | – | – | –
9 | O=[N+]([O-])c1ccc(-c2nnc(S)n2-c2ccc(F)cc2)o1 [Compound 136] | >64 | 16 (≈ 52.2 µM) | 32 (≈ 104 µM) | 64 (≈ 209 µM) | 8 (≈ 26.1 µM) | 4 (≈ 13.1 µM) | 16 (≈ 52.2 µM) | 64 (≈ 209 µM) | – | – | – | – | – | – | – | –
10 | O=[N+]([O-])c1ccc(-c2nnc(S)n2-c2ccc(Br)cc2)o1 [Compound 141] | >64 | <0.12 | 0.25 (≈ 0.681 µM) | 2 (≈ 5.45 µM) | 2 (≈ 5.45 µM) | 0.125 (≈ 0.34 µM) | 8 (≈ 21.8 µM) | 64 (≈ 174 µM) | – | – | – | – | – | – | – | –
11 | O=[N+]([O-])c1ccc(-c2nnc(S)n2-c2ccc(I)cc2)o1 [Compound 138] | >64 | 0.25 (≈ 0.604 µM) | 0.5 (≈ 1.21 µM) | 1 (≈ 2.41 µM) | – | <0.12 | 8 (≈ 19.3 µM) | 16 (≈ 38.6 µM) | – | – | – | – | – | – | – | –
12 | O=[N+]([O-])c1ccc(-c2nnc(S)n2-c2ccc(Cl)cc2)o1 [Compound 139, 4-(4-Chlorophenyl)-5-(5-nitrofuranyl)-4H-1,2,4-triazol-3-thiol] | – | – | – | – | – | – | – | – | > 64 | 0.25 (≈ 0.775 µM) | 2 (≈ 6.2 µM) | 2 (≈ 6.2 µM) | < 0.12 | 2 (≈ 6.2 µM) | 32 (≈ 99.2 µM) | < 0.12
13 | O=[N+]([O-])c1ccc(-c2nnc(S)[nH]2)o1 [Compound 117] | – | – | – | – | – | – | – | – | > 64 | 64 (≈ 302 µM) | 32 (≈ 151 µM) | 2 (≈ 9.43 µM) | 2 (≈ 9.43 µM) | 8 (≈ 37.7 µM) | > 64 | 16 (≈ 75.4 µM)
14 | C=CCn1c(S)nnc1-c1ccc([N+](=O)[O-])o1 [Compound 130] | >64 | 64 (≈ 254 µM) | >64 | 64 (≈ 254 µM) | 16 (≈ 63.4 µM) | 4 (≈ 15.9 µM) | 32 (≈ 127 µM) | >64 | – | – | – | – | – | – | – | –
15 | Cn1c(SCCCO)nnc1-c1ccc([N+](=O)[O-])o1 [Compound 116, 5-[2-(5-Nitro)furyl]-4-methyl-4H-1,2,4-triazole-3-(3-hydroxypropyl)-thiol] | – | – | – | – | – | – | – | – | 8 (≈ 28.1 µM) | 8 (≈ 28.1 µM) | 8 (≈ 28.1 µM) | 8 (≈ 28.1 µM) | 0.5 (≈ 1.76 µM) | 16 (≈ 56.3 µM) | > 64 | 1 (≈ 3.52 µM)
16 | O=[N+]([O-])c1ccc(-c2nnc(S)n2-c2ccc(Br)c(Cl)c2)o1 [Compound 142] | >64 | <0.12 | <0.12 | 1 (≈ 2.49 µM) | 2 (≈ 4.98 µM) | <0.12 | 8 (≈ 19.9 µM) | 64 (≈ 159 µM) | – | – | – | – | – | – | – | –
17 | CCCCn1c(S)nnc1-c1ccc([N+](=O)[O-])o1 [Compound 133] | >64 | 64 (≈ 239 µM) | 64 (≈ 239 µM) | >64 | 64 (≈ 239 µM) | 32 (≈ 119 µM) | 32 (≈ 119 µM) | 64 (≈ 239 µM) | – | – | – | – | – | – | – | –
18 | Cn1c(SCc2ccncc2)nnc1-c1ccc([N+](=O)[O-])o1 [Compound 129] | 64 (≈ 202 µM) | 4 (≈ 12.6 µM) | 16 (≈ 50.4 µM) | 64 (≈ 202 µM) | 16 (≈ 50.4 µM) | 0.5 (≈ 1.58 µM) | 16 (≈ 50.4 µM) | >64 | – | – | – | – | – | – | – | –

Source: US20030166645A1, “Novel nitrofuran-containing heterocyclic compounds and uses thereof” (priority 2001, published 2003)
